Experimental data as given in US4994376A, “Detection of bacteroides gingivalis” (priority 1987, dated 1991).
Where two headings read alike, the source gives them in different places. Peptide text beside a SMILES is read from it. * marks the point of attachment. βNA = c1ccc2cc(N*)ccc2c1

Assays:
Assay type in all cases: biochemical
[1] = system: B. intermedius; experiment: Aminopeptidase activity on β-naphthylamide substrates; conditions: strain ATCC 25611; β-naphthylamine liberated after 60 minutes, 37° C.
How it was run: (§1)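 Hydrolysis of N-CBz-glycyl-glycyl-L-arginine-β-naphthylamide over 1 h at 37 °C, then colour developed with Fast Garnet GBC (0.5 mg/ml) in 1M acetate pH 4.2 with 10% Tween 20 for 15 min at room temperature. Absorbance read at 525 nm against an enzyme-free control; activity given as nmol β-naphthylamine released in 60 min.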

[2] = system: C. sputigena; experiment: as above; conditions: strain ATCC 33123; β-naphthylamine liberated after 60 minutes, 37° C.
How it was run: as §1

[3] = system: B. melaninogenicus; experiment: as above; conditions: strain ATCC 25845; β-naphthylamine liberated after 60 minutes, 37° C.
How it was run: as §1

[4] = system: B. denticola; experiment: as above; conditions: strain ATCC 33185; β-naphthylamine liberated after 60 minutes, 37° C.
How it was run: as §1

[5] = system: B. corporis; experiment: as above; conditions: strain ATCC 33547; β-naphthylamine liberated after 60 minutes, 37° C.
How it was run: as §1

[6] = system: Capnocytophaga sp.; conditions: strain JD3-5; β-naphthylamine liberated after 60 minutes, 37° C.
How it was run: as §1

[7] = system: B. levii; conditions: β-naphthylamine liberated after 60 minutes, 37° C.
How it was run: as §1

[8] = system: Bacteroides gingivalis; conditions: β-naphthylamine liberated after 60 minutes, 37° C.
How it was run: as §1

[9] = system: C. ochracea; conditions: strain ATCC 27872; β-naphthylamine liberated after 60 minutes, 37° C.
How it was run: as §1

[10] = system: Lactobacillus casei; experiment: Aminopeptidase activity on β-naphthylamide substrates; conditions: β-naphthylamine liberated after 60 minutes, 37° C.
How it was run: (§2)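 Chromogenic assay using N-CBz-glycyl-glycyl-L-arginine-β-naphthylamide, incubated 1 hour at 37° C. Liberated β-naphthylamine is coupled with Fast Garnet GBC (0.5 mg/ml) in 1M acetic acid pH 4.2 with 10% Tween 20 for 15 min at room temperature, then read at 525 nm.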

[11] = system: F. periodonticum; experiment: as above; conditions: strain EK1-15; β-naphthylamine liberated after 60 minutes, 37° C.
How it was run: as §2

[12] = system: A. suis; experiment: as above; conditions: strain ATCC 15557; β-naphthylamine liberated after 60 minutes, 37° C.
How it was run: as §2

[13] = system: S. salivarius; experiment: as above; conditions: β-naphthylamine liberated after 60 minutes, 37° C.
How it was run: as §2

[14] = system: L. fermentum; experiment: as above; conditions: strain ATCC 11581; β-naphthylamine liberated after 60 minutes, 37° C.
How it was run: as §2

[15] = system: A. equuli; experiment: as above; conditions: strain ATCC 19392; β-naphthylamine liberated after 60 minutes, 37° C.
How it was run: as §2

[16] = system: Haemophilus aphrophilus; experiment: as above; conditions: β-naphthylamine liberated after 60 minutes, 37° C.
How it was run: as §2

[17] = system: A. viscosus; conditions: β-naphthylamine liberated after 60 minutes, 37° C.
How it was run: as §2

[18] = system: S. mutans; conditions: strain ATCC 25175; β-naphthylamine liberated after 60 minutes, 37° C.
How it was run: as §2

[19] = system: Veillonella sp.; conditions: strain SE1M2; β-naphthylamine liberated after 60 minutes, 37° C.
How it was run: as §2

[20] = system: Streptococcus mitis; conditions: β-naphthylamine liberated after 60 minutes, 37° C.
How it was run: as §2

[21] = system: Fusobacterium nucleatum; conditions: β-naphthylamine liberated after 60 minutes, 37° C.
How it was run: as §2

[22] = system: S. sanguis; conditions: β-naphthylamine liberated after 60 minutes, 37° C.
How it was run: as §2

[23] = system: Eikenella corrodens; conditions: strain BP1-6; β-naphthylamine liberated after 60 minutes, 37° C.
How it was run: as §2

[24] = system: A. seminis; conditions: strain ATCC 15768; β-naphthylamine liberated after 60 minutes, 37° C.
How it was run: as §2

[25] = system: Actinomyces israeli; conditions: β-naphthylamine liberated after 60 minutes, 37° C.
How it was run: as §2

[26] = system: Actinobacillus actinomycetemcomitans; conditions: β-naphthylamine liberated after 60 minutes, 37° C.
How it was run: as §2

[27] = system: V. parvula; conditions: strain ATCC 10790; β-naphthylamine liberated after 60 minutes, 37° C.
How it was run: as §2

[28] = system: Campylobacter sputorum; conditions: strain Ba1-21; β-naphthylamine liberated after 60 minutes, 37° C.
How it was run: as §2

[29] = system: "Anaerobic vibrio"; conditions: strain SN2T2; β-naphthylamine liberated after 60 minutes, 37° C.
How it was run: as §2

Structure (SMILES): C[C@H](N)C(=O)N[C@@H](C)C(=O)N[C@@H](Cc1ccccc1)C(=O)Nc1ccc2ccccc2c1 [Ala-Ala-Phe] (H-Ala-Ala-Phe-βNA)
- Aminopeptidase activity [1]: 0 nmol
- Aminopeptidase activity [2]: 44 nmol
- Aminopeptidase activity [3]: 1 nmol
- Aminopeptidase activity [4]: 2 nmol
- Aminopeptidase activity [5]: 0 nmol
- Aminopeptidase activity [6]: 0 nmol
- Aminopeptidase activity ([7]; strain 18-1-5): 0 nmol
- Aminopeptidase activity ([7]; strain 18-1-8): 0 nmol
- Aminopeptidase activity ([8]; strain 9-14K-1): 0 nmol
- Aminopeptidase activity ([8]; strain 11-1-2): 0 nmol
- Aminopeptidase activity ([8]; strain 381): 0 nmol
- Aminopeptidase activity ([8]; strain 1021): 0 nmol
- Aminopeptidase activity ([8]; strain ATCC 33277): 1 nmol
- Aminopeptidase activity ([8]; strain FAYE 19m-1): 3 nmol
- Aminopeptidase activity [9]: 82 nmol
- Aminopeptidase activity ([10]; strain ATCC 7469): 0 nmol
- Aminopeptidase activity ([10]; strain ATCC 11578): 3 nmol
- Aminopeptidase activity ([10]; strain ATCC 11582): 3 nmol
- Aminopeptidase activity [11]: 1 nmol
- Aminopeptidase activity [12]: 0 nmol
- Aminopeptidase activity ([13]; strain ATCC 9759): 0 nmol
- Aminopeptidase activity ([13]; strain ATCC 25975): 0 nmol
- Aminopeptidase activity [14]: 5 nmol
- Aminopeptidase activity [15]: 0 nmol
- Aminopeptidase activity ([16]; strain ATCC 13252): 0 nmol
- Aminopeptidase activity ([16]; strain ATCC 19415): 0 nmol
- Aminopeptidase activity ([16]; strain NCTC 5908): 0 nmol
- Aminopeptidase activity ([17]; strain ATCC 19246): 2 nmol
- Aminopeptidase activity ([17]; strain T14V): 4 nmol
- Aminopeptidase activity [18]: 0 nmol
- Aminopeptidase activity [19]: 0 nmol
- Aminopeptidase activity ([20]; strain ATCC 9815): 3 nmol
- Aminopeptidase activity ([20]; strain ATCC 15909): 1 nmol
- Aminopeptidase activity ([20]; strain ATCC 15911): 0 nmol
- Aminopeptidase activity ([20]; strain ATCC 15912): 0 nmol
- Aminopeptidase activity ([21]; strain 2): 2 nmol
- Aminopeptidase activity ([21]; strain ATCC 25586): 3 nmol
- Aminopeptidase activity ([21]; strain D31A-24): 0 nmol
- Aminopeptidase activity ([22]; strain ATCC 10556): 2 nmol
- Aminopeptidase activity ([22]; strain ATCC 10557): 1 nmol
- Aminopeptidase activity [23]: 0 nmol
- Aminopeptidase activity [24]: 0 nmol
- Aminopeptidase activity ([25]; strain ATCC 12103): 3 nmol
- Aminopeptidase activity ([25]; strain DK2-3): 0 nmol
- Aminopeptidase activity ([26]; strain 67): 3 nmol
- Aminopeptidase activity ([26]; strain 75): 1 nmol
- Aminopeptidase activity ([26]; strain ATCC 29523): 0 nmol
- Aminopeptidase activity ([26]; strain NCTC 9709): 1 nmol
- Aminopeptidase activity ([26]; strain Y4): 0 nmol
- Aminopeptidase activity [27]: 0 nmol
- Aminopeptidase activity [28]: 0 nmol
- Aminopeptidase activity [29]: 0 nmol
